Earlier results in article PMC7238120, “Strong and Selective Inhibitory Effects of the Biflavonoid Selamariscina A against CYP2C8 and CYP2C9 Enzyme Activities in Human Liver Microsomes” (Pharmaceutics, 2020).
Like-named read-outs stand apart in the source and are kept apart here.

Experiments:
CYP3A4 = test system: CYP3A4; design: method as in PMID 1602384; settings: HLMs; cited from earlier work
CYP2C9 = CYP2C9 (Homo sapiens, UniProt P11712); settings: read-out: Ki, CYP2C9, known inhibitor; cited from earlier work
CYP2C9, sequence (P11712 whole entry): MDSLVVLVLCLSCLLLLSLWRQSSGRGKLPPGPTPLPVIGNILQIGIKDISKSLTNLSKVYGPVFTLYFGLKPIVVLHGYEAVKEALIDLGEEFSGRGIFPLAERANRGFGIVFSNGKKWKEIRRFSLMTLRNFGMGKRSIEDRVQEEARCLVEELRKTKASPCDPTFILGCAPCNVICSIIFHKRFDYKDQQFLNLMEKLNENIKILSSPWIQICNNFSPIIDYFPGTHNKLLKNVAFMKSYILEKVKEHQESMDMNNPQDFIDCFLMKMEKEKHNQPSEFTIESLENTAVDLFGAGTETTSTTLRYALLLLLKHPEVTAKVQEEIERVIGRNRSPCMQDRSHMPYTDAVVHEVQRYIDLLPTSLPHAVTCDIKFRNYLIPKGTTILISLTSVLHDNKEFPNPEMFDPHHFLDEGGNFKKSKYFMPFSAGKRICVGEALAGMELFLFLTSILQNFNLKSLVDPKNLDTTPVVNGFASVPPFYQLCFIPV

CYP2C8 = target: T1, CYP2C8 (Homo sapiens, UniProt P10632); settings: cited from earlier work
T1 sequence (P10632 1-490): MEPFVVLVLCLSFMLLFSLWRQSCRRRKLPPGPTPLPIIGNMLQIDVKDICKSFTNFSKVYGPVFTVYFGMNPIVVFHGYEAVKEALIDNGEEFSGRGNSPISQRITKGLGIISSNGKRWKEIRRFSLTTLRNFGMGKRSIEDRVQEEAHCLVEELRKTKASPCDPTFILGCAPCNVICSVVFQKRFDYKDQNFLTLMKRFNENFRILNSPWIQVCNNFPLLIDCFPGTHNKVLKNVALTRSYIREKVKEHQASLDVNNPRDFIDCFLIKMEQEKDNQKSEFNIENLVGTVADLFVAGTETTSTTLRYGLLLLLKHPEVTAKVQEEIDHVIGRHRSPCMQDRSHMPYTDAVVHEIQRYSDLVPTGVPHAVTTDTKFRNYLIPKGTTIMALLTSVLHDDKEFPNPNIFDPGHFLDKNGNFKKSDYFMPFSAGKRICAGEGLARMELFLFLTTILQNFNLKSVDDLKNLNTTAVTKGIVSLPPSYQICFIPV

CYP1A2 = target: T2, CYP1A2 (Homo sapiens, UniProt P05177); design: method as in PMID 7483658; settings: human liver microsomes; read-out: Ki, CYP1A2, competitive inhibition; cited from earlier work
T2 construct: incubation mixtures containing pooled human liver microsomes (HLMs, XTreme 200, XenoTech); tissue XenoTech XTreme 200; host or cells: pooled human liver microsomes
T2 sequence (P05177 1-516): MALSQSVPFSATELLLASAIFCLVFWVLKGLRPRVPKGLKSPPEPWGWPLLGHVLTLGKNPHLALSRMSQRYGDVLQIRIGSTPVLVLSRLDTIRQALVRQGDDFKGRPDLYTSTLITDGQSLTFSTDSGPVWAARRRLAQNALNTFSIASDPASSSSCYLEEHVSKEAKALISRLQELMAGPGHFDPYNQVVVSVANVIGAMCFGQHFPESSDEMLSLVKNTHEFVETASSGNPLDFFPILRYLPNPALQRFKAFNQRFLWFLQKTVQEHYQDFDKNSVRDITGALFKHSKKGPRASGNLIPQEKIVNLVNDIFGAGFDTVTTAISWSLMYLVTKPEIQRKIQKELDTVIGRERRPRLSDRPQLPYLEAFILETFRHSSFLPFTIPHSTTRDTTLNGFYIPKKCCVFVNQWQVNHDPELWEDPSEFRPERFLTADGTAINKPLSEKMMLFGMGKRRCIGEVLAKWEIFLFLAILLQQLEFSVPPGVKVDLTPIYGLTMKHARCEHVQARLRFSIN

UGT1A1 = target: T3, UGT1A1 (Homo sapiens, UniProt P22309); design: method as in PMID 12386134; settings: read-out: IC50, UGT1A1-mediated estradiol glucuronidation; cited from earlier work
T3 sequence (P22309 26-533): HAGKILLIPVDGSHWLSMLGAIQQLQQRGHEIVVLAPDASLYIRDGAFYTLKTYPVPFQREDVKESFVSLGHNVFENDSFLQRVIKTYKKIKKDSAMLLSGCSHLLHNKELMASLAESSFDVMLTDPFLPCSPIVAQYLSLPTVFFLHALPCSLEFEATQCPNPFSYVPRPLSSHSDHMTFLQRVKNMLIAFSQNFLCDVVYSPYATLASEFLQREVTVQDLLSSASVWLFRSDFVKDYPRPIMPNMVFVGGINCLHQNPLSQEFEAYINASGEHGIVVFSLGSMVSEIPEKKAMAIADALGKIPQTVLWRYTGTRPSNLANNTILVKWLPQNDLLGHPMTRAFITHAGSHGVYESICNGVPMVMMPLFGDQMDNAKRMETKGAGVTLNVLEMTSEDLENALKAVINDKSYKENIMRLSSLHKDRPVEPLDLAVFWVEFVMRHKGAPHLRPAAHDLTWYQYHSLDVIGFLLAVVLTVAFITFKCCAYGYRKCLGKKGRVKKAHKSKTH

[1] = read-out: Ki, CYP2C8, known inhibitor

For `O=c1c(O)c(-c2ccc(O)c(O)c2)oc2cc(O)cc(O)c12` [quercetin], the “Concentrations inhibiting metabolism of nifedipine and felodipine by CYP3A4” value (CYP3A4) is listed as over 10 µM.

For `CNCCC(Oc1ccc(C(F)(F)F)cc1)c1ccccc1` (stereo not shown) [fluoxetine], the Ki (CYP2C9) is listed as 19000 to 87000 nM.

In the case of `CCOC(=O)C1=C(C)NC(C)=C(C(=O)OC)C1c1cccc(Cl)c1Cl` (stereo not shown) [felodipine], the IC50 (CYP2C8; read-out: IC50, CYP2C8, known inhibitor) is given as 1200 nM.

In the case of `Cc1cn(-c2cc(NC(=O)c3ccc(C)c(Nc4nccc(-c5cccnc5)n4)c3)cc(C(F)(F)F)c2)cn1` [nilotinib], the Ki (CYP2C8; [1]) is listed as 100 nM.

In the case of `COCCCC/C(=N\OCCN)c1ccc(C(F)(F)F)cc1` [fluvoxamine], the Ki (CYP2C9) is listed as 630 to 16000 nM.

For `COc1ccc(-c2cc(=O)c3c(OC)c(OC)c(OC)c(OC)c3o2)cc1` [tangeretin], the Ki (CYP1A2) is listed as 68 nM and the IC50 (UGT1A1) is listed as 1000 nM.

In the case of `CNC(=O)c1ccccc1Sc1ccc2c(/C=C/c3ccccn3)n[nH]c2c1` [axitinib], the Ki (CYP2C8; [1]) is given as 170 nM.

For `COc1cc(C(=O)NS(=O)(=O)c2ccccc2C)ccc1Cc1cn(C)c2ccc(NC(=O)OC3CCCC3)cc12` [zafirlukast], the Ki (CYP2C8; read-out: Ki, CYP2C8, well-known inhibitor) is given as 390 nM.

In the case of `O=c1c(O)c(-c2ccc(O)cc2)oc2cc(O)cc(O)c12` [kaempferol], the “Concentrations inhibiting metabolism of nifedipine and felodipine by CYP3A4” value (CYP3A4) is listed as over 10 µM.
